Measured values as given in ChEMBL document CHEMBL1141544, “Synthesis of N-pyrimidinyl-2-phenoxyacetamides as adenosine A2A receptor antagonists” (Bioorg Med Chem Lett, 2008).
pIC50, pKi: −log10 of the molar value. Converted amounts (≈) assume the structure as drawn.

Tests used:
[1] = organism: Homo sapiens; test: Selectivity of Ki for human adenosine A2A receptor over Ki for human adenosine A1 receptor
[2] = biological target: T1, Adenosine receptor A2a (Homo sapiens, UniProt P29274); test: Binding affinity at adenosine A2A receptor
[3] = biological target: T2, Adenosine receptor A1 (Homo sapiens, UniProt P30542); test: Displacement of [3H]DPCPX from human adenosine A1 receptor expressed in HEK293 cells; type: cell-based
T2 sequence (P30542 whole entry): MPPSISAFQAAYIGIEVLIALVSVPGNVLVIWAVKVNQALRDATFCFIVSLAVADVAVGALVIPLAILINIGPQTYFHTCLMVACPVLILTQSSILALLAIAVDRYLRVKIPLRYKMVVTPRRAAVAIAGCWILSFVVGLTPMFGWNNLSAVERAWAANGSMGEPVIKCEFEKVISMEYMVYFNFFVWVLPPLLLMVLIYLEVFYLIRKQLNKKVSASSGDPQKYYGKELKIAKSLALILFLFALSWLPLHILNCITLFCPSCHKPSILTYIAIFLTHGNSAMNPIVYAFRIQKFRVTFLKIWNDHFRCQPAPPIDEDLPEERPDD

[4] = biological target: T1, Adenosine receptor A2a; test: Displacement of [3H]ZM-241385 from human adenosine A2A receptor expressed in HEK293 cells; type: cell-based
[5] = biological target: Cytochrome P450 3A4 (Homo sapiens, UniProt P08684); test: Inhibition of CYP3A4; type: ADME
[6] = biological target: Voltage-gated inwardly rectifying potassium channel KCNH2 (Homo sapiens, UniProt Q12809); test: Binding affinity at human ERG
[7] = Solubility at pH 5; type: physicochemical; settings: buffer
[8] = biological target: T2, Adenosine receptor A1; test: Binding affinity at adenosine A1 receptor
[9] = biological target: Cytochrome P450 2D6 (Homo sapiens, UniProt P10635); test: Inhibition of CYP2D6; type: ADME
[10] = Plasma clearance in rat; type: ADME, organism-based
[11] = Half life in rat; type: ADME, organism-based; settings: in vivo
[12] = Oral bioavailability in rat; type: ADME, organism-based; settings: in vivo
[13] = biological target: Adenosine receptor A2a (Rattus norvegicus, UniProt P30543); test: Inhibition of rat adenosine A2A receptor
[14] = tested on: Rattus norvegicus; test: Inhibition of haloperidol-induced catalepsy in orally dosed rat; type: functional; settings: po, read-out: MED
[15] = Drug level in rat brain after 4 hrs; type: ADME, tissue-based; settings: read-out: Drug uptake
[16] = Volume of distribution in rat; type: ADME, organism-based; settings: in vivo

T1 sequence (P29274 whole entry): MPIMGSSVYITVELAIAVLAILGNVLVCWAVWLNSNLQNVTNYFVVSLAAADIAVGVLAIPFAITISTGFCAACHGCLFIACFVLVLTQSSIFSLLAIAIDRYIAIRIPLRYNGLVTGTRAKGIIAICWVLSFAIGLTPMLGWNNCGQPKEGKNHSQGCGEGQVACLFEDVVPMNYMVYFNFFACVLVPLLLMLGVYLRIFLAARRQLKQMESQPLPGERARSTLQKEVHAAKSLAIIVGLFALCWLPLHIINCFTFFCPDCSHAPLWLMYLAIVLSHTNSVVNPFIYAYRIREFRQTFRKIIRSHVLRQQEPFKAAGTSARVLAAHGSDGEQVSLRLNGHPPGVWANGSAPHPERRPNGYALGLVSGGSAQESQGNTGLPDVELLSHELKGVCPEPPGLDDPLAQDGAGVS
Chain of Cytochrome P450 3A4 (P08684 whole entry): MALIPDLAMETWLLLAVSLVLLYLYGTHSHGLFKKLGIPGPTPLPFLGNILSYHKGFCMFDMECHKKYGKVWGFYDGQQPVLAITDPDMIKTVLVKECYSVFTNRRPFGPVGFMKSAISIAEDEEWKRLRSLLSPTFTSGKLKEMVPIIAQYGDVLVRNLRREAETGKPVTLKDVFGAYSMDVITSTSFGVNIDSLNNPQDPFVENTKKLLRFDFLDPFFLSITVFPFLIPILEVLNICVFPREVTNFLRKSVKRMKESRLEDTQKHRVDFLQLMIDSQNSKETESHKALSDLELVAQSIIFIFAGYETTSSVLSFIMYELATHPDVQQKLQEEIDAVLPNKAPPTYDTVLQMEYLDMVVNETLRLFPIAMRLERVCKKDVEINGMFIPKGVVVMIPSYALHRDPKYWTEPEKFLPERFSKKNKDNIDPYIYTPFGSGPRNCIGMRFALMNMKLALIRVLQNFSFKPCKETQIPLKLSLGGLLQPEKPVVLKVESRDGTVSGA
Chain of Cytochrome P450 2D6 (P10635 whole entry): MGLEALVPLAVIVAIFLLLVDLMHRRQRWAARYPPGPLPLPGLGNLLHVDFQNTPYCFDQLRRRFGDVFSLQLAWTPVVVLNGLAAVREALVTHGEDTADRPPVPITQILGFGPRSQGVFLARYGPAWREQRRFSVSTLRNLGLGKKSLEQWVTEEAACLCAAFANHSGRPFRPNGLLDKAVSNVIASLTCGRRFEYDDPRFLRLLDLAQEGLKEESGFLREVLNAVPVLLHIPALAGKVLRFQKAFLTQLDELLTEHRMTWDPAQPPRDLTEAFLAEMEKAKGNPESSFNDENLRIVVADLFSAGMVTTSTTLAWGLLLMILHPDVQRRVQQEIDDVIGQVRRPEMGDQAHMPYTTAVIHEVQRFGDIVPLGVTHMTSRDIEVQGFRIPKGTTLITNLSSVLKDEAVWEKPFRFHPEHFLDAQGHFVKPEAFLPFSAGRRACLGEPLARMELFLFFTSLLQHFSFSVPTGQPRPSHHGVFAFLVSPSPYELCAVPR
Chain of Adenosine receptor A2a (Rattus norvegicus, UniProt P30543) (P30543 whole entry): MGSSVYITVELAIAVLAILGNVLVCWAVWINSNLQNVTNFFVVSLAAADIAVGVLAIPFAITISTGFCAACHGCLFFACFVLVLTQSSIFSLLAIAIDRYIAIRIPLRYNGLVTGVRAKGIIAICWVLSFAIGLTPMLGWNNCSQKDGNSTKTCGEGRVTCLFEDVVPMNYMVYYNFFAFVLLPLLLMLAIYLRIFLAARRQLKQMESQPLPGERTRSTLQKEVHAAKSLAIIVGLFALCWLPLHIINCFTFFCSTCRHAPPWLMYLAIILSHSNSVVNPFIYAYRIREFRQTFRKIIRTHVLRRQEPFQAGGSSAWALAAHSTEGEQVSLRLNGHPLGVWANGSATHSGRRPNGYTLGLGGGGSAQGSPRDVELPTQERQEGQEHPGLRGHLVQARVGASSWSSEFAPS
Chain of Voltage-gated inwardly rectifying potassium channel KCNH2 (Q12809 whole entry): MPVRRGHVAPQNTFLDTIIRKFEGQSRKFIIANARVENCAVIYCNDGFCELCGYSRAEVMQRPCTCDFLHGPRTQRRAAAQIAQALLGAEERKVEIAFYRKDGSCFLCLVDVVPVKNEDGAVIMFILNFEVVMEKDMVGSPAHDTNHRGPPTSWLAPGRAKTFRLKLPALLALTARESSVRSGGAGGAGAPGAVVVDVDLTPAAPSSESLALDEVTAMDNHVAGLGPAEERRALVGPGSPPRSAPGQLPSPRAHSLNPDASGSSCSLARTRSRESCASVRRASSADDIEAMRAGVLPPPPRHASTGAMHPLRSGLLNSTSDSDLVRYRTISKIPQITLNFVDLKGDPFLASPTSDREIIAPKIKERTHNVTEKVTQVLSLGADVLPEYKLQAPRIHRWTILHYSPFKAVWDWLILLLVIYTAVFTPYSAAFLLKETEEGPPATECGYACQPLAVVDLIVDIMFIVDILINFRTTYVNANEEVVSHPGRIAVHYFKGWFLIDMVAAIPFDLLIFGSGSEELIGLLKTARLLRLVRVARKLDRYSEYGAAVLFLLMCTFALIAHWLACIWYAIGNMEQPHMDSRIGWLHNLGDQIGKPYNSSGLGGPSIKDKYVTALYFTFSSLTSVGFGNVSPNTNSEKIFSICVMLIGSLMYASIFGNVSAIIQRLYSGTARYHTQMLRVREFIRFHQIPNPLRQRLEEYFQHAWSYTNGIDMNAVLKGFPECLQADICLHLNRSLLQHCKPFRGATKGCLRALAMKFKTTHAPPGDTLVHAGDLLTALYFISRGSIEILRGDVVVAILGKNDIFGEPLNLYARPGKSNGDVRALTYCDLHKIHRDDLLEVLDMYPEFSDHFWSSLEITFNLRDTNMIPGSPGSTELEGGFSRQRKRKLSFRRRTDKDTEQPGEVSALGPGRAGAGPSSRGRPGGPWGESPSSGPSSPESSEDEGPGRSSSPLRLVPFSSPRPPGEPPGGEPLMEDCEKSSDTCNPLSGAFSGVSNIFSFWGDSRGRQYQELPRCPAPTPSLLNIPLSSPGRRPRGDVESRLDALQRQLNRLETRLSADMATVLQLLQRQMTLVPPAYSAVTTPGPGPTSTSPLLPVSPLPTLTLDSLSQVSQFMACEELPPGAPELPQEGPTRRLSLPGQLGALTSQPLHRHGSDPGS

pKi [3] | pKi [4] | Structure (SMILES) | other results
7.14 | 9.15 | Cc1cc(C)n(-c2cc(NC(=O)COc3cccc(CN)c3)nc(-c3ccc(C)o3)n2)n1 | Ratio Ki [1]: 100; pKi [2]: 9.15
5.96 | 8.13 | Cc1ccc(-c2nc(NC(=O)COc3ccccc3)cc(-c3nccs3)n2)o1 | 
6.32 | 8.85 | Cc1cc(C)n(-c2cc(NC(=O)COc3cc(F)cc(CN4CCOCC4)c3)nc(-c3ccc(C)o3)n2)n1 | 
5.85 | 8.24 | COc1cccc(CN(C)C)c1OCC(=O)Nc1cc(-n2nc(C)cc2C)nc(-c2ccc(C)o2)n1 | 
6.57 | 9.00 | Cc1ccc(OCC(=O)Nc2cc(-n3nc(C)cc3C)nc(-c3ccc(C)o3)n2)c(CN(C)C)c1 | 
 |  | CC(=O)Nc1cc(-n2cccn2)nc(-c2ccco2)n1 | Ratio Ki [1]: 17; pKi [2]: 9.22
7.11 | 9.30 | Cc1cc(C)n(-c2cc(NC(=O)COc3cccc(CCN(C)C)c3)nc(-c3ccc(C)o3)n2)n1 | 
5.89 | < 5.00 | Cc1ccc(-c2nc(NC(=O)COc3ccc(F)cc3)cc(-c3nccs3)n2)o1 | 
6.57 | 9.00 | Cc1cc(C)n(-c2cc(NC(=O)COc3ccccc3CN(C)C)nc(-c3ccc(C)o3)n2)n1 | 
7.00 | 9.70 | COc1cc(CN(C)C)ccc1OCC(=O)Nc1cc(-n2nc(C)cc2C)nc(-c2ccc(C)o2)n1 | 
5.37 | 8.17 | Cc1ccc(-c2nc(NC(=O)COc3cccc(C#N)c3)cc(-c3nccs3)n2)o1 | 
6.85 | 9.30 | Cc1cc(C)n(-c2cc(NC(=O)COc3cc(F)cc(CN(C)C)c3)nc(-c3ccc(C)o3)n2)n1 | 
5.68 | 7.44 | Cc1ccc(OCC(=O)Nc2cc(-c3nccs3)nc(-c3ccc(C)o3)n2)cc1 | 
6.70 | 9.05 | COc1ccc(OCC(=O)Nc2cc(-n3nc(C)cc3C)nc(-c3ccc(C)o3)n2)c(CN(C)C)c1 | pIC50 [5]: 5.80
7.17 | 9.52 | CCN(C)Cc1cccc(OCC(=O)Nc2cc(-n3nc(C)cc3C)nc(-c3ccc(C)o3)n2)c1 | Ratio Ki [1]: 100; pKi [2]: 9.52
4.60 | < 5.00 | Cc1cc(C)n(-c2cc(NC(=O)COc3cccc(C#N)c3)nc(-c3ccc(C)o3)n2)n1 | 
6.19 | 8.12 | Cc1ccc(-c2nc(NC(=O)COc3ccccc3F)cc(-c3nccs3)n2)o1 | Ratio Ki [1]: 87
5.66 | 7.96 | Cc1ccc(-c2nc(NC(=O)COc3cccc(F)c3)cc(-c3nccs3)n2)o1 | 
7.17 | 9.52 | CCNCc1cccc(OCC(=O)Nc2cc(-n3nc(C)cc3C)nc(-c3ccc(C)o3)n2)c1 | Ratio Ki [1]: 100; pKi [2]: 9.52
6.82 | 9.52 | COc1cc(OCC(=O)Nc2cc(-n3nc(C)cc3C)nc(-c3ccc(C)o3)n2)ccc1CN(C)C | 
6.74 | 8.44 | O=C(COc1cccc(F)c1)Nc1cc(-c2nccs2)nc(-c2ccccn2)n1 | 
5.01 | 8.43 | Cc1cc(C)n(-c2cc(NC(=O)COc3cccc(F)c3)nc(-c3ccc(C)o3)n2)n1 | Ratio Ki [1]: 2600; solubility [7]: 80 µg/mL (≈ 190 µM)
 |  | Cc1ccc(-c2nc(NC(=O)CCc3ccccc3F)cc(-c3nccs3)n2)o1 | Ratio Ki [1]: 26; pKi [2]: 7.80; pKi [8]: 6.39
6.92 | 9.52 | Cc1cc(C)n(-c2cc(NC(=O)COc3ccc(CN(C)C)cc3)nc(-c3ccc(C)o3)n2)n1 | 
6.92 | 9.30 | Cc1cc(C)n(-c2cc(NC(=O)COc3cc(F)cc(CN4CCCC4)c3)nc(-c3ccc(C)o3)n2)n1 | 
5.82 | 7.85 | Cc1ccc(-c2nc(NC(=O)COc3cccc(Cl)c3)cc(-c3nccs3)n2)o1 | 
6.13 | 9.15 | Cc1cc(OCC(=O)Nc2cc(-n3nc(C)cc3C)nc(-c3ccc(C)o3)n2)cc(C)n1 | pIC50 [5]: 5.96; pIC50 [9]: 7.30
7.22 | 9.40 | Cc1cc(C)n(-c2cc(NC(=O)COc3cccc(CN(C)C)c3)nc(-c3ccc(C)o3)n2)n1 | clearance [10]: 330 mL/min/kg; half-life [11]: 48 min; pIC50 [5]: < 5.22; bioavailability [12]: 19%; pKi [13]: 8.03; pIC50 [9]: < 5.22; minimal effective dose [14]: 10 mg/kg; concentration at 4 h [15]: 360 ng/g; solubility [7]: 210 µg/mL (≈ 456 µM); Vd [16]: 20 L/kg

Structure (SMILES) | pKi [3] | pKi [4] | other results
Cc1cc(C)n(-c2cc(NC(=O)COc3cccc(CCN4CCOCC4)c3)nc(-c3ccc(C)o3)n2)n1 | 6.27 | 8.64 | 
Cc1cc(C)n(-c2cc(NC(=O)COc3cccc(CN4CCOCC4)c3)nc(-c3ccc(C)o3)n2)n1 | 6.22 | 8.92 | Ratio Ki [1]: 500
Cc1cc(C)nc(OCC(=O)Nc2cc(-n3nc(C)cc3C)nc(-c3ccc(C)o3)n2)n1 | 7.02 | 8.43 | 
N#Cc1cccc(OCC(=O)Nc2cc(-c3nccs3)nc(-c3ccccn3)n2)c1 | 7.06 | 8.74 | 
Cc1cc(C)n(-c2cc(NC(=O)COc3ccccc3CCN3CCOCC3)nc(-c3ccc(C)o3)n2)n1 | 5.92 | 8.92 | pKi [6]: 6.74
